Tested on: tail tip fibroblasts (TTFs), MRTF-A KO and WT
Experiment: SMA expression in tail tip fibroblasts from MRTF-A KO and WT mice
Format: cell-based, mouse
Settings: TGF-β1 48 hrs
Protocol: Mouse NIH/3T3 and human BR5 fibroblasts were grown as in DMEM supplemented with 10% BCS or FBS at 37° C. in a 5% CO2 incubator as previously described (Rhee et al., 2007). Primary mouse tail tip fibroblasts (TTFs) were isolated from 6- to 8-wk-old myocardin-related transcription factor (MRTF)-A−/− or wild-type littermates and cultured in DMEM supplemented with 10% FBS, nonessential amino acids, L-glutamine, and sodium pyruvate as described previously (Song et al., 2012). Once TTFs became confluent, cells were frozen in 10% DMSO containing growth media for future use before passage 3.
NIH/3T3 cells were transfected with 10 ng empty flag or flag epitope-tagged MRTF-A vector along with 100 ng smooth muscle a-actin (SMA), atrial natriuretic factor (ANF), SM22, or skeletal actin (SKA) luciferase reporter and 20 ng of β-galactosidase (β-gal) expression construct using Fugene6 (Roche). Plasmid DNA content was kept constant using empty pcDNA3.1-flag. BR5, NIH/3T3, or TTF cells were infected with adenovirus directing the expression of flag-MRTF-A, HA-MRTF-A, or β-gal as control at the multiplicity of infection (MOI) noted in the text. For experiments using chemical compounds or growth factors, cells were cultured in serum-free media (SF) for 24 h before treatment, followed by an additional 24- to 48-hr incubation in SF media treated with TGF-β1 (10 ng/mL, R&D Systems) solubilized in 4 mM HCl/1% BSA/PBS or isoxazole (20 μM) solubilized inDMSO.
Cells were treated with the indicated factor for 24 h before fixation with methanol at −20° C. for 10 min. Indirect immunofluorescence was performed by incubating with the following primary antibodies at 4° C. overnight: mouse monoclonal Cy3-conjugated anti-SMA antibody (Sigma, clone 1A4, 1:200) and rabbit monoclonal anti-HA antibody (Cell Signaling, 1:300). A secondary goat Alexa Fluor 488-conjugated anti-rabbit IgG antibody (Invitrogen, 1:200) was used to visualize HA by incubation at RT for 1 hr. All images were captured using an Olympus IX81 confocal microscope. […]

Substance: TGF-β1: growth factor (R&D Systems) used at 10 ng/mL to stimulate fibroblast differentiation
- expression of genes encoding SMC contractile proteins (SMA and SM22), qPCR and Western blot (MRTF-A-deficient TTFs): blunted
- SMA-positive stress fibers (MRTF-A-deficient fibroblasts): did not display an enrichment
- morphology and SMA-positive stress fibers (WT fibroblasts): adopting an elongated morphology and producing SMA-positive stress fibers

Source: patent US9937156B2, “Modulation of MRTF-A activity in pathologic fibrosis and wound healing” (The Board of Regents of the University of Texas System, priority 2013, dated 2018)
